According to patent US11453642B2, “Oxygenated amino- or ammonium-containing sulfonic acid, phosphonic acid and carboxylic acid derivatives and their medical use” (GRI BIO, INC., priority 2011, dated 2022):
Marks after values point to notes of the source that are not given here.

What was measured:
[1] = test system: allergic contact dermatitis response in mice; assay: Allergic contact dermatitis (TDI) model in mice, mouse ear swelling test; type: in vivo
Experimental: The anti-inflammatory and anti-allergic effects of compounds 1a and 1c were assessed in a mouse model of allergic contact dermatitis, a response driven primarily by T helper type 2 (Th2) cells. […] In this model, an allergic dermatitis response is obtained by sensitizing mice to TDI and subsequently challenging them with antigen by topical administration onto the ears. A quantitative assessment of anti-inflammatory and anti-allergic effects of topically or orally administered test compounds is possible by measuring the resulting ear swelling. The advantages of the allergic contact dermatitis model (Zöllner et al., Bioessays 26:693-6 (2004)) are reproducibility and reliability (>90% of BALB/c mice respond to sensitization), a short induction protocol, quantitative assessment by measuring ear thickness, atopic dermatitis-like skin lesions can be induced, and clinically relevant pharmaceuticals, such as corticosteroids, calcineurin-inhibitors and PDE4-inhibitors, are effective in this model.
Female BALB/c-mice were obtained from Charles River (Sulzfeld, Germany) at age 8 weeks. All animals were housed in groups of eight per cage at 22° C. with a 12 h light/dark-cycle, Water and a standard diet (Altromin, Lage/Lippe, Germany) were available ad libitum. All animals were acclimatized for one week before experimental procedures were commenced.
Experimental procedures for BALB/c mice housing, TDI sensitization and challenge, and measurement of ear thickness were performed as previously described (Baumer et al., J Pharm Pharmacol, 55:1107-1114 (2003)) with the following modifications. For active sensitization, 100 μL of 5% (w/v) TDI was administered to the shaved and stripped abdominal epidermis on day one, and for the next three consecutive days, 50 μL of 5% (My) TDI was applied. The allergic reaction was boosted 21 days later by application of 50 μL of 0.5% (w/v) TDI. For the examination of test compound effects, the left ears were used for the TDI challenge (20 μL of 0.5% in acetone) and ear thickness measured 3 h before and 24 h after challenge.
Group size was n=7 mice unless otherwise stated. Test compounds were freshly prepared before administration.
Administration time: to determine optimal time for administration treatment groups were treated orally by gavage with 100 mg/kg of compound 1a or 1c (suspended in 0.5% tylose, 10 mL/kg) 1, 4 or 16 h before topical TDI challenge. One group was treated with 100 mg/kg miltefosine orally, 16 h before challenge (based on available data for optimal administration time for miltefosine) and vehicle treated mice received tylose (10 mL/kg) orally, 4 h before challenge.
Dose-response: two groups of mice were treated orally with compound 1a at 25 mg/kg or 100 mg/kg suspended in 0.5% tylose, 4 h before topical TDI challenge. Vehicle treated mice received 0.5% tylose orally 4 h before challenge. As a positive control, dexamethasone was administered in saline solution at 1 mg/kg or 3 mg/kg, 2 h and 30 min before challenge and 1 h after challenge. The dose and dosing scheme for dexamethasone was based on previous experience showing a maximal effect in this model.
Compound 1a was administered to two groups of mice topically in 20 μl of a 2% or 6% solution in propyleneglycol. The suspension was heated to 60° C. and mixed using a thermomixer (Eppendorf) until it became clear. The solution was applied, 2 h before topical TDI challenge by administration of 10 μl onto each of the inner and outer surfaces of the left ears. A vehicle group (17=5) was treated with propyleneglycol. As a positive control, diflorasone, diacetate was administered at 0.01% (low dose) and 0.05% (high dose) in 20 μl acetone, 2 h before challenge. A basal control group was left untreated.
Mean and standard error of the mean (SEM) were calculated from individual ear edema values. […]

[2] = test system: allergic contact dermatitis response in mice; assay: as above; type: in vivo; conditions: topical, 0.5% in 20 μl acetone, 2 h before challenge
[3] = test system: local lymph node reaction; assay: Local lymph node weight and cell count after TDI challenge; type: in vivo, mice; conditions: topical 1a 2% or 6%, diflorasone 0.1% and 0.5%
Experimental: Directly after sacrifice, the ear draining lymph node (Ln. auricularis) was prepared and excised. Organ weight was determined by means of an analytical balance (Kern, Balingen, Germany). Single cell suspensions were prepared by means of a glass potter (VWR, Darmstadt, Germany) and cells were counted with a hemocytometer (Neubauer, VWR, Germany).
One of the most undesirable side-effects of corticosteroid administration is immunosuppression, which leads to the inability to effectively address parasitic infection, wound healing and tumor growth. In the current study, the local lymph node reaction after TDI challenge (lymph node weight and cell number) was determined to assess the response of immune organs.

In the case of CC(=O)OCC(=O)[C@@]1(OC(C)=O)[C@@H](C)C[C@H]2[C@@H]3C[C@H](F)C4=CC(=O)C=C[C@]4(C)[C@@]3(F)[C@@H](O)C[C@@]21C [Diflorasone, diflorasone diacetate, reference compound], the “effect on ear swelling (in words)” value ([1]; topical positive control, ear thickness reduced below level of untreated mice) is reported as “completely eliminated ear swelling”, the “Inhibition of mouse ear swelling” value ([1]; topical, 0.1% in 20 μl acetone, 2 h before challenge) is reported as 101.1*** % and the “Inhibition of mouse ear swelling” value [2] is reported as 110.8*** %. The “local lymph node reaction (lymph node weight and cell number)” value [3] was “completely inhibiting the increase”.
